Test results from ChEMBL document CHEMBL1909046, “DrugMatrix in vitro pharmacology data”.

What was measured:
[1] = target: 5-hydroxytryptamine receptor 1B (Rattus norvegicus, UniProt P28564); assay type: cell membranes, Wistar, Cerebral cortex, Membrane; note: in other assays of this panel Not Active means under 50% inhibition at 10 µM
[2] = target: T1, Angiotensin-converting enzyme (Oryctolagus cuniculus, UniProt P12822); experiment: biochemical; assay type: tissue-based, Lung;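 note: enzymatic inhibition of angiotensin-converting enzyme measured with FAPGG as the substrate; in other assays of this panel Not Active means under 50% inhibition at 10 µM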
T1 sequence (P12822 whole entry): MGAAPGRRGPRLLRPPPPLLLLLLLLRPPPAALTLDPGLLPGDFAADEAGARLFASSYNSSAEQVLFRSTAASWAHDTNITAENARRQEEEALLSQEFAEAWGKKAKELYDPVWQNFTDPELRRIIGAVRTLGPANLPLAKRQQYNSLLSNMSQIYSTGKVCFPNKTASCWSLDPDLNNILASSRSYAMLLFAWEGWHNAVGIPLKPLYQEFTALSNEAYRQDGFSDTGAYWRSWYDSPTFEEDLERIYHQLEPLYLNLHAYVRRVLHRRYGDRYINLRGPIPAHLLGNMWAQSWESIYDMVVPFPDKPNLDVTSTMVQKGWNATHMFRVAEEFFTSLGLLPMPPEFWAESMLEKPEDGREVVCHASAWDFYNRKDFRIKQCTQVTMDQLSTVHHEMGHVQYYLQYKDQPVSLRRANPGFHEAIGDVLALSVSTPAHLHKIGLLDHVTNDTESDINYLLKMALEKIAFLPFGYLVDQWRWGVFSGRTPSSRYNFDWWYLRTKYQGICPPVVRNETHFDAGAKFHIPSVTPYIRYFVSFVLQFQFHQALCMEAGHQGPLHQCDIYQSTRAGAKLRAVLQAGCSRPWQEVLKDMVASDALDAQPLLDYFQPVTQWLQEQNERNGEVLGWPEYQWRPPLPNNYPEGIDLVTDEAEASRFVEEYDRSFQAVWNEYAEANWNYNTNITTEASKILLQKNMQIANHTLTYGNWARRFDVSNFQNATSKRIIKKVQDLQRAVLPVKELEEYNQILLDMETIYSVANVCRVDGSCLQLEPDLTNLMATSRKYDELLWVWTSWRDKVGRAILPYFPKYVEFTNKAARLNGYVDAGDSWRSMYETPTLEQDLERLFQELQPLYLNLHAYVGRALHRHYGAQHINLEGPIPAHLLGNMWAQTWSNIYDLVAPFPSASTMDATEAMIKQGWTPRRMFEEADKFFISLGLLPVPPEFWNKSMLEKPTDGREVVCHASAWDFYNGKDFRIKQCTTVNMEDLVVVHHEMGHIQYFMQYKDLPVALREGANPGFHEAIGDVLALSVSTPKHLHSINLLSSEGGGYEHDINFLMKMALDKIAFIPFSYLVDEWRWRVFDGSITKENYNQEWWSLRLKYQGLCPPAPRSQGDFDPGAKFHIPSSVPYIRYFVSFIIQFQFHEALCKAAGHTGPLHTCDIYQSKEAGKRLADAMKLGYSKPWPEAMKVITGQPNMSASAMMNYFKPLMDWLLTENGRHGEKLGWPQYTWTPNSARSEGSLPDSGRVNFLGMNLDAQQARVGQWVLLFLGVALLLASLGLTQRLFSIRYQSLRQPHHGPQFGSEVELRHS

[3] = target: 5-hydroxytryptamine receptor 4 (Cavia porcellus, UniProt O70528); assay type: cell membranes, Dunkin-Hartley, Striatum, Membrane; note: in other assays of this panel Not Active means under 50% inhibition at 10 µM
[4] = DRUGMATRIX: Phosphodiesterase PDE4 enzyme inhibition (substrate: [3H]cAMP + cAMP); conditions: u-937; Not Active = under 50% inhibition at 10 µM
[5] = target: T2, 5-hydroxytryptamine receptor 1A (Rattus norvegicus, UniProt P19327); assay type: cell membranes, CHO-K1, Membrane; conditions: cho-k1; note: in other assays of this panel Not Active means under 50% inhibition at 10 µM
T2 sequence (P19327 whole entry): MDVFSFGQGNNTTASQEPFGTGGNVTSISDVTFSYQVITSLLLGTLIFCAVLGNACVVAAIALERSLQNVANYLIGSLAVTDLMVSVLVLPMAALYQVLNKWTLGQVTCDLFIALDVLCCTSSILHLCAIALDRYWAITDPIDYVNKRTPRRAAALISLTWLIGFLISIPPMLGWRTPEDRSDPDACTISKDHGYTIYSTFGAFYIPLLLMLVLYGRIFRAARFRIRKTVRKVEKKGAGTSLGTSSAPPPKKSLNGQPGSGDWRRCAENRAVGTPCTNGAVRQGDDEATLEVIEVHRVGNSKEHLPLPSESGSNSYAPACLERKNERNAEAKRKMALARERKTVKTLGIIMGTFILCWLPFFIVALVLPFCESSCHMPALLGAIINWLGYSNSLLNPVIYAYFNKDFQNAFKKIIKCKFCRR

[6] = target: Beta-2 adrenergic receptor (Homo sapiens, UniProt P07550); experiment: DRUGMATRIX: Adrenergic beta2 radioligand binding (ligand: [3H] CGP-12177); assay type: cell membranes, Membrane; conditions: cho; Not Active = under 50% inhibition at 10 µM
[7] = DRUGMATRIX: GABAA, Muscimol, Central radioligand binding (ligand: [3H] Muscimol); assay type: cell membranes, Rattus norvegicus, Wistar, Brain, Membrane; conditions: Not Active = under 50% inhibition at 10 µM
[8] = target: T3, Alpha-1B adrenergic receptor (Rattus norvegicus, UniProt P15823); experiment: DRUGMATRIX: Alpha-1B adrenergic receptor radioligand binding (ligand: prazosin); assay type: cell membranes, Wistar, Liver, Membrane; conditions: Not Active = under 50% inhibition at 10 µM
T3 sequence (P15823 whole entry): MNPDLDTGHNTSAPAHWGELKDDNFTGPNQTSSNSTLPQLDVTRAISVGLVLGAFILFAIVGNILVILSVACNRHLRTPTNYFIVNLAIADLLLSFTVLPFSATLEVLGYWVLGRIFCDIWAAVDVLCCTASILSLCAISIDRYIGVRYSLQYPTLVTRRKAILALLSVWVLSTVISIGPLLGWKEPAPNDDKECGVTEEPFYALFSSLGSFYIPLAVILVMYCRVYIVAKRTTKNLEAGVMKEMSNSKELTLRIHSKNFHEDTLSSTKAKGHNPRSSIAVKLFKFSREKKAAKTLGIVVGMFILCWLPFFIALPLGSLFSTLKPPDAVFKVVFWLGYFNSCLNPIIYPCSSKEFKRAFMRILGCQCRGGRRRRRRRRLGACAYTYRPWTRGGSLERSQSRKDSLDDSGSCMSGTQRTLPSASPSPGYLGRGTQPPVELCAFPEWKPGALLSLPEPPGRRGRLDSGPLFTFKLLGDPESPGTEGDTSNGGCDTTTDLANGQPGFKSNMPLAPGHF

[9] = target: Platelet-activating factor receptor (Homo sapiens, UniProt P25105); experiment: biochemical; assay type: tissue-based; conditions: platelet; note: in other assays of this panel Not Active means under 50% inhibition at 10 µM
[10] = target: Mitogen-activated protein kinase 3 (Homo sapiens, UniProt P27361); experiment: DRUGMATRIX: Protein Serine/Threonine Kinase, ERK1 enzyme inhibition (substrate: Myelin Basic Protein); set-up: species or system Escherichia coli; conditions: Not Active = under 50% inhibition at 10 µM
Sequence of Mitogen-activated protein kinase 3 (P27361 whole entry): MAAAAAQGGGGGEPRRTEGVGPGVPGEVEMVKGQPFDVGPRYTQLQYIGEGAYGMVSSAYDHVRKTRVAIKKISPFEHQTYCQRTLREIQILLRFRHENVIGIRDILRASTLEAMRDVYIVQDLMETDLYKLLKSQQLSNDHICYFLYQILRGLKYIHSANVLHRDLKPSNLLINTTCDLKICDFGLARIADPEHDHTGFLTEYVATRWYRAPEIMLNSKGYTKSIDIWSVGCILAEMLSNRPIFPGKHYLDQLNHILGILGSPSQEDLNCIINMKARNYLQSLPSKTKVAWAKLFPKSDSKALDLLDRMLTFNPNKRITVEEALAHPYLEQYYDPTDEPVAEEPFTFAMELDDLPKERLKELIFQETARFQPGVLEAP

Sequence of 5-hydroxytryptamine receptor 4 (O70528 whole entry): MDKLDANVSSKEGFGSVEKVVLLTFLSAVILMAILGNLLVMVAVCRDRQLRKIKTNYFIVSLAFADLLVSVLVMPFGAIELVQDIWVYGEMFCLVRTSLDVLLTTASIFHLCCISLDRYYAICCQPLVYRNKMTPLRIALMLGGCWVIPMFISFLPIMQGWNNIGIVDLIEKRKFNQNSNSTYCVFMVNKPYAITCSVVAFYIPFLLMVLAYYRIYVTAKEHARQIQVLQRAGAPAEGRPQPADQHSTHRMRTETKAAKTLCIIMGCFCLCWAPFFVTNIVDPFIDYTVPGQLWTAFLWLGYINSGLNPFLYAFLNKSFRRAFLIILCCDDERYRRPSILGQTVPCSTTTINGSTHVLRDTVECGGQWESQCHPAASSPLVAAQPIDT
Sequence of 5-hydroxytryptamine receptor 1B (P28564 whole entry): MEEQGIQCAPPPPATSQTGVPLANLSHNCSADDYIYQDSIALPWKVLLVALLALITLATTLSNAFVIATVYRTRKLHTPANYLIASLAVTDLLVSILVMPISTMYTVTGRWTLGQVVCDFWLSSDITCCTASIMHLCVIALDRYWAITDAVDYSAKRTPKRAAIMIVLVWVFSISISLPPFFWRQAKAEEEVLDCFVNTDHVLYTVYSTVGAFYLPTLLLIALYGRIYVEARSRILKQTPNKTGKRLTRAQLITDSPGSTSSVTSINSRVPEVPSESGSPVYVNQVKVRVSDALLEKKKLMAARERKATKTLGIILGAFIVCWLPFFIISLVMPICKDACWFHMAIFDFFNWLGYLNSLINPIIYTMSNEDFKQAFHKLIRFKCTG
Sequence of Beta-2 adrenergic receptor (P07550 whole entry): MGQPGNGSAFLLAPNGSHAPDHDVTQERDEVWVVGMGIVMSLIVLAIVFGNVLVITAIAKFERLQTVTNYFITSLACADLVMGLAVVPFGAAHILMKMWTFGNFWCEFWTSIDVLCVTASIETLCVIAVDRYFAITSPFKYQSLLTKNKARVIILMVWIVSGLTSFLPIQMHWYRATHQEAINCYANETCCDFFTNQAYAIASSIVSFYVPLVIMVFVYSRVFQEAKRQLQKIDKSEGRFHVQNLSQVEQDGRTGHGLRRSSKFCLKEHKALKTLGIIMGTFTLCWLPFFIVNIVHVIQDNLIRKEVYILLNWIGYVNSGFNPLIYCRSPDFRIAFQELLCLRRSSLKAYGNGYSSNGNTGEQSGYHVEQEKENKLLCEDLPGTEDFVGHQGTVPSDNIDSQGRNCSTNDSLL
Sequence of Platelet-activating factor receptor (P25105 whole entry): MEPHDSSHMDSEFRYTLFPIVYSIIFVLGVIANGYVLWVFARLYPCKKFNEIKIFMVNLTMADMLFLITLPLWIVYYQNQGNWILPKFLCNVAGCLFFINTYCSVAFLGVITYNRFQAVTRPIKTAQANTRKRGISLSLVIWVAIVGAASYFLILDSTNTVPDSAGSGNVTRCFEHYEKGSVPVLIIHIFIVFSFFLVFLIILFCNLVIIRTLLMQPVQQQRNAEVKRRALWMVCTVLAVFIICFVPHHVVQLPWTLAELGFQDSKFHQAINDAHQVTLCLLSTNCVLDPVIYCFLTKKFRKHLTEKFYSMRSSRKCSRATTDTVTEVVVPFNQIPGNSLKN

Row | Structure (SMILES) | IC50 [1] | IC50 [2] | IC50 [3] | IC50 [4] | Ki [4] | IC50 [5] | IC50 [6] | IC50 [7] | Ki [7] | IC50 [8] | IC50 [9] | IC50 [10] | IC50 ([2]; read-out: IC50) [µM] | IC50 ([10]; read-out: IC50) [µM]
1 | CC1(C)[C@H]2CC[C@]1(C)C(=O)C2 [(-)-CAMPHOR] | Not Active | Not Active | Not Active | Not Active | Not Active | Not Active | Not Active | Not Active | Not Active | Not Active | Not Active | Not Active |  | 
2 | Oc1c(I)cc(I)c2cccnc12 [IODOQUINOL] | Not Active |  | Not Active | Not Active | Not Active | Not Active | Not Active | Not Active | Not Active | Not Active | Not Active |  | 0.906 | 5.26
3 | NNC(=O)c1ccncc1 [ISONIAZID] | Not Active | Not Active | Not Active | Not Active | Not Active | Not Active | Not Active | Not Active | Not Active | Not Active | Not Active | Not Active |  | 
4 | CC1=C(/C=C/C(C)=C/C=C/C(C)=C\C(=O)O)C(C)(C)CCC1 [ISOTRETINOIN] | Not Active | Not Active | Not Active | Not Active | Not Active | Not Active | Not Active | Not Active | Not Active | Not Active | Not Active | Not Active |  | 
5 | CO[C@@H]1[C@@H](O[C@@H]2O[C@H](C)[C@@H](O[C@H]3C[C@@](C)(O)[C@@H](OC(=O)CC(C)C)[C@H](C)O3)[C@H](N(C)C)[C@H]2O)[C@@H](CC=O)C[C@@H](C)[C@@H](O)/C=C/C=C/C[C@@H](C)OC(=O)C[C@H]1O [KITASAMYCIN] | Not Active | Not Active | Not Active | Not Active | Not Active | Not Active | Not Active | Not Active | Not Active | Not Active | Not Active | Not Active |  | 
6 | Nc1nnc(-c2cccc(Cl)c2Cl)c(N)n1 [LAMOTRIGINE] | Not Active | Not Active | Not Active | Not Active | Not Active | Not Active | Not Active | Not Active | Not Active | Not Active | Not Active | Not Active |  | 
7 | CCC[C@@H]1C[C@@H](C(=O)N[C@@H]([C@H]2O[C@H](SC)[C@H](O)[C@@H](O)[C@H]2O)[C@@H](C)O)N(C)C1 [LINCOMYCIN] | Not Active | Not Active | Not Active | Not Active | Not Active | Not Active | Not Active | Not Active | Not Active | Not Active | Not Active | Not Active |  | 
8 | NCCCC[C@H](N[C@@H](CCc1ccccc1)C(=O)O)C(=O)N1CCC[C@H]1C(=O)O [LISINOPRIL ANHYDROUS] | Not Active |  | Not Active | Not Active | Not Active | Not Active | Not Active | Not Active | Not Active | Not Active | Not Active | Not Active | 0.00604 | 
9 | COS(C)(=O)=O [METHANESULFONIC ACID METHYL ESTER] | Not Active | Not Active | Not Active | Not Active | Not Active | Not Active | Not Active | Not Active | Not Active | Not Active | Not Active | Not Active |  | 
10 | COC(=O)c1ccc(O)cc1 [METHYLPARABEN] | Not Active | Not Active | Not Active | Not Active | Not Active | Not Active | Not Active | Not Active | Not Active | Not Active | Not Active | Not Active |  | 
11 | C[C@](N)(Cc1ccc(O)cc1)C(=O)O [METYROSINE] | Not Active | Not Active | Not Active | Not Active | Not Active | Not Active | Not Active | Not Active | Not Active | Not Active | Not Active | Not Active |  | 
12 | Clc1ccc(C(c2ccccc2Cl)C(Cl)Cl)cc1 (centres undefined) [MITOTANE] | Not Active | Not Active | Not Active | Not Active | Not Active | Not Active | Not Active | Not Active | Not Active | Not Active | Not Active | Not Active |  | 
